The results in this text go back to patent US7432045B2 (priority 2003, dated 2008).

SMILES strings stand for the structures. Read-outs that look alike come from different tables or passages of the source. Peptide text beside a SMILES is read from it.

The test system of data set [1] is hrR3. Put plainly: Virucidal assay. The format is cell-based, HSV-1. As for the experimental part:
[…] The treated virus was diluted 200-fold with serum-supplemented DMEM and assayed for infectivity approximately 1 hour later in microtiter wells seeded with Vero cells (3.5×10^4 cells/well) 1 d earlier. Forty or 100 microliter volumes of diluted virus were adsorbed for 1 or 2 h at 37° C. and lacZ^+ cells were scored 8 hours later. In some experiments, aliquots of diluted virus were first dialyzed (Spectra/Por; MWCO 12-14,000) overnight at 4° C. against a 60-fold excess volume of Hepes-buffered serum-supplemented DMEM or forced by syringe through 0.22 μm membranes (Millex-GV; Millipore) before the remaining infectious virus was assayed.

Data set [2] deals with HSV-1 KOS virions. In words: Electron microscopy of peptide-treated virus (aggregation). As for the experimental part: Electron microscopy: Purified HSV-1 KOS virions (2.5×10^7 pfu/mL) according to Visalli et al., Virus Res. 29:167 (1993) were treated with 25 μM antiviral peptide SEQ ID NO:1 or the control peptide EBX (SEQ ID NO:17) in 40 μL serum-free DMEM buffered with 25 mM Hepes (pH 7.4) for 5 to 60 min at 4 or 23° C. Aliquots (10 μL) were adsorbed to pioloform poly-L-lysine-coated grids for 5 min at 23° C. Grids were rinsed with PBS, stained with 2% phosphotungstic acid (PTA) in water adjusted to pH ˜6, and air dried. Alternatively, virus was pre-adsorbed to grids and treated with peptides thereafter. A total of 4×10^9 pfu/mL of purified HSV-1 KOS in 5 μL PBS was applied to the coated grids for 5 min at 23° C., and the grids were rinsed once with serum-free DMEM buffered with 25 mM Hepes (pH 7.4) and treated with 15 μL of 5 mM EB or EBX in the same medium for 30 min at 37° C. The pH of highly concentrated solutions of antiviral peptide SEQ ID NO:1 and EBX was re-adjusted to 7.4 with NaOH prior to use. To prevent evaporation of the peptide-containing solutions, each grid was held in a Hiraoka flexible staining plate and covered with a miniature bell jar made from an 0.5 mL polypropylene micro-centrifuge tubes, small enough for the 15 μL to fill half of the bell jar facing the coated surface of the grid. The entire assembly was then incubated in a moist chamber for 30 min at 37° C. […]

For data set [3], the system named is cornea. Put plainly: In vivo peptide toxicity, cornea. On the set-up: species or system BALB/C mice. The conditions noted are these: for blepharitis: four times a day for seven days. As for the experimental part: (i) Cornea: Four-6-week-old female BALB/C mice (Harlan Sprague Dawley, Indianapolis, Ind.) were anesthetized by halothane inhalation (3-5%). A 2.0 μL drop of serum-free 5×DMEM solution containing 6.1 mM EB, 6.1 mM EBX, 7.5 mM TAT-C, 7.5 mM n50,51 TAT-C, 7.5 mM TAT-Cd, or 11.2 mM bHOMd or serum-free DMEM only (control) was then placed on the cornea and the mice were returned to their cages. Each group consisted of 5 mice, except for 11.2 mM bHOMd, and 7.5 mM TAT-Cd, which consisted of 4 mice. Only the right eye in each mouse received the peptide. Treatments were given 4 times per day at least 2 hrs apart for 7 days. On days 1, 5, and 7, the mice were examined microscopically for evidence of blepharitis, punctate keratopathy, dendrite ulceration and geographic ulceration. Damage to the corneal epithelium was assessed by staining with 1.0% […] and examination under a microscope with blue light. Blepharitis was scored: 1+ for noticeable puffy eyelids, 2+ for puffy eyelids with moderate crusting, 3+ for eye 50% swollen shut with severe crusting, and 4+ for eye totally swollen and crusted shut (Brandt et al., 1992). Punctate keratopathy, dendrite ulceration, and geographic ulceration were scored: 1+ for <25% of the cornea involved, 2+ for 25-50% involved, 3+ for 50-75% involved, and 4+ for >75% involved. The mean disease score for each group of mice on each day was calculated by the sum of disease scores in each group on each day divided by the numbers of mice in that group. On day 7, following the last treatment, the mice were sacrificed and the eyes were removed, fixed in 10% formalin, embedded in paraffin, sectioned (5μ each), and stained with hematoxylin and eosin as we have described previously (Brandt et al., 1996). Sections were then examined for evidence of damage to the cornea, sclera, lens, and retina.

In data set [4] the test system is HSV-1 KOS. The conditions noted are these: depending on concentration.
Data set [5] has as its system HSV-1 KOS mutant hrR3. The conditions noted are these: read-out: IC50 (lacZ+ cells).
The test system of data set [6] is hrR3. The conditions noted are these: read-out: IC50, infection in presence of peptide with peptide treated virions.
Data set [7] deals with Vero, HeLa, CV-1PD, TM-1, DP-9, CEMx174, NIKS, W12E cells. In words: MTS assay, eight cell lines. The conditions noted are these: for cytotoxicity to cells (MTS), overall: eight cell lines. (In general: Tetrazolium dyes change colour on reduction, which living cells bring about.)
Data set [8] concerns HSV-1 KOS mutant hrR3.

The IC50 is the concentration that inhibits the measured activity by half. For `CC(C)C[C@H](NC(=O)[C@H](C)NC(=O)[C@H](CC(C)C)NC(=O)[C@H](CC(C)C)NC(=O)[C@@H](NC(=O)[C@H](C)NC(=O)[C@@H]1CCCN1C(=O)[C@H](CC(C)C)NC(=O)[C@H](CC(C)C)NC(=O)[C@H](C)NC(=O)[C@@H](NC(=O)[C@H](C)NC(=O)[C@H](C)NC(=O)[C@H](CCCCN)NC(=O)[C@H](CCCCN)NC(=O)[C@H](CCCNC(=N)N)NC(=O)[C@@H](N)CCCNC(=N)N)C(C)C)C(C)C)C(=O)N[C@@H](CC(C)C)C(=O)N[C@@H](C)C(=O)N1CCC[C@H]1C(=O)O` [EB] (H-RRKKAAVALLPAVLLALLAP-OH), the “reversibility of virion inactivation by overnight dialysis” value in data set [1] is reported as “irreversibly inactivated”. Also, the IC50 was 89 µM in data set [1] (4° C., read-out: Virucidal Activity 4° C. IC50); 44 µM in data set [1] (first experiment, FIG. 8A, read-out: inhibition of infectivity of virions IC50); 69 µM in data set [1] (second experiment, FIG. 8B, read-out: inhibition of infectivity of virions IC50); 0.66 µM in data set [5] (virus input 19 pfu/well); 1.2 µM in data set [5] (virus input 210 pfu/well); 11 µM in data set [5] (virus input 5700 pfu/well). The values for the half-maximal inhibitory concentration (IC50) in data set [6] (cells pretreated with peptide) and in data set [6] (non-pretreated cells) were 0.9 µM and 1.7 µM, respectively. The “aggregation of virus particles” value in data set [2] (25 μM peptide) was “nearly all of the particles were seen in relatively few large aggregates”. Moreover, in data set [2] (room temperature as well as 4° C.), the “time of aggregate formation” value was less than 5 min. In data set [3], the blepharitis result is on record as “no effect”. Further, in data set [3] (mouse, in vivo), the corneal pathology entry is “no evidence of corneal pathology”. In data set [4], the “reduction of virus yields” value was “up to eight orders of magnitude”. Also, the “cytotoxicity to cells (MTS), overall” value in data set [7] is on record as “generally not cytotoxic”.
As for `N=C(N)NCCC[C@H](NC(=O)CN)C(=O)N[C@@H](CCCCN)C(=O)N[C@@H](CCCCN)C(=O)N[C@@H](CCCNC(=N)N)C(=O)N[C@@H](CCCNC(=N)N)C(=O)N[C@@H](CCC(N)=O)C(=O)N[C@@H](CCCNC(=N)N)C(=O)N[C@@H](CCCNC(=N)N)C(=O)N[C@@H](CCCNC(=N)N)C(=O)N[C@@H](CS)C(=O)O` [TAT-C, NH2-GRKKRRQRRRC-COOH], in data set [3], the blepharitis result is given as “mild blepharitis”. Moreover, in data set [8] (10 or 100 μM peptide), the “inhibitory effect after 1 h at 32° C.” value is reported as “about 90%”; the “virus internalized after cultures were rinsed and shifted to 37° C.” value was 25-33%. The “reversibility of the inhibitory effect after removal of peptide” value in data set [8] (n50,51TAT-C 10 μM, TAT-C 10 or 100 μM) was “largely irreversible”. For the same molecule, in data set [7] (all cell lines tested), the “concentration at which not toxic (MTS)” value is greater than 400 µM. Moreover, in data set [7], the “cytotoxicity to cells (MTS), overall” value was “generally not cytotoxic”.
